# Assay results taken from US6011041A, “Use of anhydrovinblastine” (priority 1996, dated 2000).
# Counter-ions that a name gives are not always drawn.
# What was measured:
# C-4 cells = assay: cytotoxicity on C-4 cells (FIG. 8); format: cell-based; settings: 72 h; C-4, 3 day incubation
# Procedure: A wide range of drug concentrations were exposed to tumour cells growing at log phase in 96-well microtitre plates. Cell concentrations depended on the cell line as well as the length of time to be cultured. Typically, P388 cells were plated at a concentration of 30,000, 2,000 and 750 cells per well for studies lasting 1, 3 and 7 days, respectively MCF7 cells were plated at a concentration of 7,000 and 1,500 cells per well for studies lasting 3 and 7 days, respectively. H460 cells were plated at a concentration of 2,500 and 1,000 cells per well for studies lasting 3 and 7 days, respectively. K562 cells were plated at a concentration of 1,500 and 10,000 cells per well for studies lasting 1 and 3 days, respectively. LS180 cells were plated at a concentration of 5,000 and […] cells per well for studies lasting 3 and 7 days, respectively. After plating all cell lines were incubated (CO2 incubator at 37° C., 5% CO2) for 24 hours prior to addition of the cytotoxic agent (See Table 1). Subsequently the plates were incubated for the indicated time period. […] After the sample was mixed through repeated pipetting, the colored product was measured using a plate reader operating at 570 nm. The absorbance values obtained for cells cultured in the absence of drug was assumed to represent 100% viability. […]
# [1] = P388 tumour antitumor activity and maximum tolerated dose in BDF1 mice (FIGS. 6, 7); format: in vivo; settings: mouse, in vivo, iv; BDF1 mice bearing P388 tumors, single i.v. injection
# Procedure: (§1) Antitumour studies in mice focused on the P388 leukemia model. […] This is an ascitic tumour model that was generated by intraperitoneal inoculation of 1×10^6 P388 cells (derived from culture, with an original cell line obtained from the NCI tumour repository) in BDF1 mice (Charles Rivers). One day after tumour cell inoculation, mice were treated with a single intravenous injection of drug. Animal weight was monitored daily and tumour progression was measured as an increase in animal weight and through estimation of survival time. Therapy was described by a decrease in tumour progression and an increase in survival time relative to an untreated control group. Initial studies established the maximum therapeutic dose for AHVB. Subsequently comparative studies with vincristine and navelbine were initiated where animals were treated with each drug at the maximum therapeutic dose.
# (§2) The in vivo antitumour activity of AHVB was compared to that of vincristine, navelbine in the BDF1-murine P388 model in the procedure as follows. P388 cells were derived from the ascities of previously injected female BDF1 mice (19-21 grams) P388 cells, from the NCI tumor repository were inoculated directly into mice. The cells arrive from NCI frozen in 1 ml aliquots. These samples were thawed rapidly at 37° C. and subsequently injected (within 1 hour) intraperitoneally into two mice, 0.5 ml per mouse. One week (7 days) after inoculation, the tumor cells were harvested by removing peritoneal fluid using a sterile syringe with a 22 gauge needle. The cells, pooled from two animals, were counted using a heamocytometer, diluted (RPMI media) to a concentration of 2×10^6 cells/ml and 0.5 ml was then re-injected into each of two BDF1 mice. Remaining cells were washed and placed into a DMSO containing media and frozen (in freezer packs that cool at a defined rate). This process was repeated weekly over a […]. Cells used for anti-tumor studies were collected from the third passage to the 20th passage. After the 20th passage the cells were no longer used for experimental studies. Newly established cells were derived from the frozen cells prepared as described above.
# (§3) Groups (five mice per group) of female BDFI mice (Charles Rivers, Canada) were injected (intraperitoneal) with 10^6 P388 cells (as described above). One day after tumor cell inoculation, the mice were given a bolus intravenous injection of indicated drug via the lateral tail vein. […] Following administration of the test articles, animals were weighed daily for fourteen days and monitored for signs of stress twice daily for the first 14 days (once daily on weekends) and once daily for the remainder of the study. Severely distressed animals were terminated by CO2 asphyxiation and the time of death was recorded to occur on the following day. […]
# P388 tumor = assay: as above; format: in vivo
# Procedure: as §1, §2, §3
# SKOV3 cells = assay: cytotoxicity on SKOV3 cells (FIG. 8); format: cell-based; settings: Homo sapiens, SK-OV-3, 72 h; SKOV3, 3 day incubation
# L1210 leukemia = settings: cited from earlier work
# [2] = tested on: non-small cell lung cancer; settings: patients; cited from earlier work
# [3] = tested on: cells derived from human lung cancer; settings: cited from earlier work
# nerves = settings: vs vinblastine, vindesine; cited from earlier work
# [4] = relative to other vinca alkaloids; cited from earlier work
# tumour = settings: alkaloids extracted from Vinca rosea; cited from earlier work
smiles,measurement,setting,value
"CCC1=CC2CN(CCc3c([nH]c4ccccc34)C(C(=O)OC)(c3cc4c(cc3OC)N(C)C3C(O)(C(=O)OC)C(OC(C)=O)C5(CC)C=CCN6CCC43C65)C2)C1 (stereo not drawn) [AHVB, 3',4'-anhydrovinblastine]",IC50,C-4 cells,20 nM
same,MTD,[1],40 mg/kg
same,times less toxic (on a weight basis) than vincristine,"P388 tumor; BDF1 mice bearing P388, single i.v.",approximately 10 times
same,"antitumor activity (number of long term survivors, >60 days)","P388 tumor; maximum tolerated dose, AHVB 40 mg/kg vs vincristine 3 mg/kg, single i.v.",significantly better than that observed for vincristine
same,in vivo antitumor efficacy relative to other vinca alkaloids such as vincristine and navelbine,P388 tumor; overall conclusion,significant improvements in in vivo antitumor efficacy
same,IC50,SKOV3 cells,4000 nM
"CCC1=C[C@@H]2CN(C1)Cc1c([nH]c3ccccc13)[C@@](C(=O)OC)(c1cc3c(cc1OC)N(C)[C@H]1[C@@](O)(C(=O)OC)[C@H](OC(C)=O)[C@]4(CC)C=CCN5CC[C@]31[C@@H]54)C2 [navelbine, 3',4'-didehydro-4'-deoxy-C'-norvincaleukoblastine-di-L-tartrate]",potency against L1210 leukemia,L1210 leukemia,less potent than vinbiastine and vincristine
same,clinical utility in non-small cell lung cancer,[2],support its utility in treating non-small cell lung cancer
same,activity against cells derived from human lung cancer,[3],active
"CC[C@]1(O)C[C@H]2CN(CCc3c([nH]c4ccccc34)[C@@](C(=O)OC)(c3cc4c(cc3OC)N(C=O)[C@H]3[C@@](O)(C(=O)OC)[C@H](OC(C)=O)[C@]5(CC)C=CCN6CC[C@]43[C@@H]65)C2)C1 [vincristine, Sulfate of 22-oxovincaleukoblastine]","uptake into nerves, times faster than the other drugs",nerves,4 times
same,terminal elimination phase of plasma clearance,[4],extended terminal elimination phase of plasma clearance
same,antitumour activity,tumour,significant antitumour activity
